Laboratory results: patent US20240124389A1, “COMPOUND OR SALT THEREOF, LIPID PARTICLES, AND PHARMACEUTICAL COMPOSITION” (FUJIFILM Corporation, priority 2021, published 2024)

What was measured:
FLuc mRNA = assay: mRNA encapsulation rate of FLuc mRNA-encapsulating lipid particles; type: physicochemical; details: aminolipid 45 / DOPE 10 / cholesterol 43.5 / DMG-PEG2000 1.5 mol %, lipid/nucleic acid 32 wt/wt
Method: (§1) The compounds described in Table 2, the neutral lipid, cholesterol (product name: Cholesterol HP; NTPPON FINE CHEMICAL CO., LTD.), and 1,2-dimyristoyl-rac-glycero-3-(methylpolyoxyethylene 2000) (hereinafter, called DMG-PEG2000) were dissolved in ethanol at a molar ratio in Table 2 such that the total lipid concentration became 20 mmol/L, thereby obtaining an oil phase.
(§2) As the neutral lipid, 1,2-distearoyl-sn-glycero-3-phosphocholine (product name: COATSOME® MC-8080; NOF corporation) was used in a case of Comparative Example 1, and L-α-dioleoylphosphatidylethanolamine (product name: COATSOME® MC-8181; NOF corporation) was used in a case other than Comparative Example 1.
(§3) FLuc mRNA (product name: CleanCap FLuc mRNA (5 moU); TriLink) was diluted with 50 mmol/L citrate buffer having a pH 4 such that the weight ratio of total lipid concentration to mRNA concentration is about 19:1 to 64:1, obtaining a water phase. Then, the water phase and the oil phase were mixed together using NanoAssemblr (Precision NanoSystems) such that the volume ratio of water phase:oil phase was 3:1, and the mixed solution was 1.5-fold diluted with phosphate buffered saline (PBS), thereby obtaining a dispersion liquid of mRNA lipid particles. The dispersion liquid was dialyzed with a 10% aqueous sucrose solution using a dialysis cassette (Slide-A-Lyzer G2, MWCO: 10 kD, Thermo Fisher Scientific) to remove ethanol, thereby obtaining FLuc mRNA-encapsulating lipid particles.
(§4) 15 to 30 μL of a 3 mol/L aqueous sodium acetate solution and 4.5 to 9 μL of glycogen were added to 30 to 60 μL of the lipid particles retaining mRNA, and 0.75 to 1.5 mL of ethanol was added thereto, so that only the nucleic acids were precipitated while the lipid was dissolved. Then, the supernatant was removed by centrifugation. The precipitates were air-dried for 15 minutes or longer, then water was added thereto to redissolve the precipitates, and the concentration thereof was measured using Nanodrop NF1000 (Thermo Fisher Scientific), thereby quantifying the total mRNA concentration.
(§5) The mRNA concentration was quantified using a Quant-iT RiboGreen RNA Assay Kit (Thermo Fisher Scientific) according to the protocol. First, a 20×TE buffer included in the above-described kit was diluted with water, thereby obtaining a 1×TE buffer. TE represents Tris/EDTA (ethylenediaminetetraacetic acid). In order to quantify only mRNA in the outer water phase, the dispersion liquid of lipid particles retaining mRNA was 10,000-fold diluted with the 1×TE buffer. 100 μL of the 10,000-fold diluted dispersion liquid of lipid particles was put into a 96-well plate, then 100 μL of a RiboGreen reagent (reagent included in the Quanti-iT Ribogreen RNA Assay Kit described above) 2,000-fold diluted with the 1×TE buffer was added to a sample, and fluorescence (excitation wavelength: 485 nm, fluorescence wavelength: 535 nm) was measured using a plate reader Infinite F200 (TECAN), thereby quantifying the mRNA concentration in the outer water phase.
(§6) By using the quantification results of the total mRNA concentration and the mRNA concentration in the outer water phase that were obtained through the above steps, the mRNA encapsulation rate of the mRNA lipid particles was calculated according to the following Equation.
(§7) mRNA encapsulation rate (%)=(total mRNA concentration-mRNA concentration in outer water phase)/total mRNA concentration×100

[1] = Particle size of FLuc mRNA-encapsulating lipid particles; type: physicochemical; details: aminolipid 45 / DOPE 10 / cholesterol 43.5 / DMG-PEG2000 1.5 mol %, lipid/nucleic acid 32 wt/wt
Method: as §1, §2, §3
(§8) The particle size of the mRNA-encapsulating lipid particles was measured by 10-fold diluting the dispersion liquid of lipid particle with phosphate buffered saline (PBS) using Zeta-potential & Particle size Analyzer ELS-Z2 (Otsuka Electronics Co., Ltd.).

human EPO = assay: Measurement of EPO enzyme activity (EPO protein in blood plasma of mice after intravenous administration of EPO mRNA lipid particles); type: in vivo; details: C57BL/6J mice, tail-vein i.v., mRNA 0.1 mg/kg, plasma 20 to 24 hours, lipid/nucleic acid 64 wt/wt
Method: (§9) The compounds described in Table 1, the neutral lipid, cholesterol (product name: Cholesterol HP; NIPPON FINE CHEMICAL CO., LTD.), and 1,2-dimyristoyl-rac-glycero-3-(methylpolyoxyethylene 2000) (hereinafter, called DMG-PEG2000) (product name: SUNBRIGHT® GM-020; NOF corporation) were dissolved in ethanol at a molar ratio in Table 1 such that the total lipid concentration became 20 mmol/L, thereby obtaining an oil phase.
(§10) As the neutral lipid, 1,2-distearoyl-sn-glycero-3-phosphocholine (product name: COATSOME® MC-8080; NOF corporation) (hereinafter, DSPC), or L-α-dioleoyl phosphatidylethanolamine (Hereinafter, DOPE) (product name: COATSOME® ME-8181; NOF corporation), or 1,2-dioleoyl-sn-glycero-3-phosphocholine (hereinafter, DOPC) (product name: COATSOME® MC-8181; NOF corporation) was used.
as §3, with “EPO” for “FLuc”, “(5moU);” for “(5 moU);”, “16:1” for “19:1”, “64:1, thereby” for “64:1,”
The dispersion liquid of mRNA lipid particles prepared in above-described <Preparation of EPO mRNA-encapsulating lipid particles> was tail-vein intravenously administered to C57BL/6J mice at a mRNA dosage of 0.1 mg/kg. 20 to 24 hours after the administration, blood was collected from the caudal vena cava, thereby obtaining blood plasma. The human EPO enzyme activity was quantified by using the obtained blood plasma and ab119522 Erythropoietin (EPO) Human Elisa Kit (Abcam.plc). The quantitative value is described as a relative amount of EPO protein in a case where Comparative Example 1 is 1.

[2] = Particle size of EPO mRNA-encapsulating lipid particles; type: physicochemical; details: lipid/nucleic acid 64 wt/wt
Method: as §9, §10
as §3, with “EPO” for “FLuc”, “(5moU);” for “(5 moU);”, “16:1” for “19:1”, “64:1, thereby” for “64:1,”
as §8

EPO mRNA = assay: mRNA encapsulation rate of EPO mRNA-encapsulating lipid particles; type: physicochemical; details: lipid/nucleic acid 64 wt/wt
Method: as §9, §10
as §3, with “EPO” for “FLuc”, “(5moU);” for “(5 moU);”, “16:1” for “19:1”, “64:1, thereby” for “64:1,”
as §4, §5, §6, §7

[3] = aminolipid 50 / DOPE 10 / cholesterol 38.5 / DMG-PEG2000 1.5 mol %
[4] = aminolipid 45 / DOPE 10 / cholesterol 43.5 / DMG-PEG2000 1.5 mol %

CCCCCC(CCCCC)COC(=O)CCCC(CCCC)OC(=O)OCCN(CCOC(=O)OC(CCCC)CCCC(=O)OCC(CCCCC)CCCCC)CCN(CC)CC (centres unmarked) [Example 22, Bis(2-pentylheptyl) 5,17-dibutyl-11-(2-(diethylamino)ethyl)-7,15-dioxo-6,8,14,16-tetraoxa-11-azahenicosanedioate]
Nucleic acid encapsulation rate (FLuc mRNA): 98.7%
Particle size [1]: 95 nm
Relative amount of EPO protein (with respect to Comparative Example 1) (human EPO; [3]): 4.69
Particle size [2, 3]: 78.3 nm
Nucleic acid encapsulation rate (EPO mRNA; [3]): 98.6%

CCCCCCCOC(=O)CCCC(CCCC(=O)OCCCCCCC)OC(=O)OCCN(CCCN(CC)CC)CCOC(=O)OC(CCCC(=O)OCCCCCCC)CCCC(=O)OCCCCCCC [Example 38, Diheptyl 11-(3-(diethylamino)propyl)-5,17-bis(4-(heptyloxy)-4-oxobutyl)-7,15-dioxo-6,8,14,16-tetraox a-11-azahenicosanedioate]
Nucleic acid encapsulation rate (FLuc mRNA): 99.7%
Particle size [1]: 116 nm
Relative amount of EPO protein (with respect to Comparative Example 1) (human EPO; [3]): 2.13
Particle size [2, 3]: 101.4 nm
Nucleic acid encapsulation rate (EPO mRNA; [3]): 100.0%

CCN(CC)CCN(CCOC(=O)OC(CCCC(=O)OCCCCCCCCSC)CCCC(=O)OCCCCCCCCSC)CCOC(=O)OC(CCCC(=O)OCCCCCCCCSC)CCCC(=O)OCCCCCCCCSC [Example 44, Bis(8-(methylthio)octyl) 11-(2-(diethylamino)ethyl)-5,17-bis(4-((8-(methylthio)octyl)oxy)-4-oxobutyl)-7,15-dioxo-6,8,14,16-tetraoxa-11-azahenicosanedioate]
Nucleic acid encapsulation rate (FLuc mRNA): 100.0%
Particle size [1]: 170.5 nm
Relative amount of EPO protein (with respect to Comparative Example 1) (human EPO; [4]): 1.39
Particle size [2, 4]: 201.9 nm
Nucleic acid encapsulation rate (EPO mRNA; [4]): 81.2%

CCCCCCCOC(=O)CCC(CCC(=O)OCCCCCCC)OC(=O)OCCN(CCOC(=O)OC(CCC(=O)OCCCCCCC)CCC(=O)OCCCCCCC)CCN(CC)CC [Example 39, Diheptyl 10-(2-(diethylamino)ethyl)-4,16-bis(3-(heptyloxy)-3-oxopropyl)-6,14-dioxo-5,7,13,15-tetraox a-10-azanonadecanedioate]
Nucleic acid encapsulation rate (FLuc mRNA): 90.1%
Particle size [1]: 141.1 nm
Relative amount of EPO protein (with respect to Comparative Example 1) (human EPO; [3]): 8.03
Particle size [2, 3]: 147.2 nm
Nucleic acid encapsulation rate (EPO mRNA; [3]): 93.8%

CCCCCC(CCCCC)COC(=O)CCCC(CCCCC)OC(=O)OCCN(CCOC(=O)OC(CCCCC)CCCC(=O)OCC(CCCCC)CCCCC)CCN(CC)CC (centres unmarked) [Example 23, Bis(2-pentylheptyl) 11-(2-(diethylamino)ethyl)-7,15-dioxo-5,17-dipentyl-6,8,14,16-tetraoxa-11-azahenicosanedioate]
Relative amount of EPO protein (with respect to Comparative Example 1) (human EPO; [3]): 3.60
Particle size [2, 3]: 76.8 nm
Nucleic acid encapsulation rate (EPO mRNA; [3]): 97.5%

CCCCCCC(CCCC(=O)OCC(CCCCC)CCCCC)OC(=O)OCCCN(CCCOC(=O)OC(CCCCCC)CCCC(=O)OCC(CCCCC)CCCCC)CCN(CC)CC (centres unmarked) [Example 15, Bis(2-pentylheptyl) 12-(2-(diethylamino)ethyl)-5,19-dihexyl-7,17-dioxo-6,8,16,18-tetraoxa-12-azatricosanedioate]
Relative amount of EPO protein (with respect to Comparative Example 1) (human EPO; [3]): 1.92
Particle size [2, 3]: 76.8 nm
Nucleic acid encapsulation rate (EPO mRNA; [3]): 97.5%

CCCCCCOC(=O)CCCC(CCCC(=O)OCCCCCC)OC(=O)OCCN(CCOC(=O)OC(CCCC(=O)OCCCCCC)CCCC(=O)OCCCCCC)CCN(CC)CC [Example 32, Dihexyl 11-(2-(diethylamino)ethyl)-5,17-bis(4-(hexyloxy)-4-oxobutyl)-7,15-dioxo-6,8,14,16-tetraoxa-11-azahenicosanedioate]
Relative amount of EPO protein (with respect to Comparative Example 1) (human EPO; [3]): 4.03
Particle size [2, 3]: 165.3 nm
Nucleic acid encapsulation rate (EPO mRNA; [3]): 95.5%

CCCCCCCCCOC(=O)CCCC(CCCC(=O)OCCCCCCCCC)OC(=O)OCCN(CCOC(=O)OC(CCCC(=O)OCCCCCCCCC)CCCC(=O)OCCCCCCCCC)CCN(CC)CC [Example 34, Dinonyl 11-(2-(diethylamino)ethyl)-5,17-bis(4-(nonyloxy)-4-oxobutyl)-7,15-dioxo-6,8,14,16-tetraoxa-11-azahenicosanedioate]
Relative amount of EPO protein (with respect to Comparative Example 1) (human EPO; [3]): 1.20
Particle size [2, 3]: 99.2 nm
Nucleic acid encapsulation rate (EPO mRNA; [3]): 100.0%

CCCCCC(CCCCC)COC(=O)CCCC(C)OC(=O)OCCN(CCOC(=O)OC(C)CCCC(=O)OCC(CCCCC)CCCCC)CCN(CC)CC (centres unmarked) [Example 19, Bis(2-pentylheptyl) 11-(2-(diethylamino)ethyl)-5,17-dimethyl-7,15-dioxo-6,8,14,16-tetraoxa-11-azahenicosanedio ate]
Relative amount of EPO protein (with respect to Comparative Example 1) (human EPO; [3]): 1.26
Particle size [2, 3]: 147.0 nm
Nucleic acid encapsulation rate (EPO mRNA; [3]): 100.0%
